# System: immunoglobulins from the serum of metastatic prostate cancer patients
# Assay: Biopanning of CX6C phage library on IgGs from serum of prostate cancer patients A, B, C
# Assay type: binding, human
# Details: patient C
# Description: Sera was selected from patients diagnosed with androgen-dependent and androgen-independent prostate cancer. A CX6C peptide library was screened against this pool of IgGs in a two-step procedure. First, the peptide library was pre-cleared against a pool of purified IgGs from normal serum samples using Protein G affinity chromatography. This step removed peptides from the phage display library that bound to immunoglobulins from patients without prostate cancer. Next, the pre-cleared peptide library was screened against the pool of purified IgGs from the serum of prostate cancer patients. This step selected peptides binding specifically to IgGs elicited against prostate cancer.
# A 6-mer cyclic peptide (CX6C) phage display library was used for the biopanning. To select peptides specific to the serum antibodies of cancer patients, a pre-clearing stage was employed to remove non-specific peptides by pre-absorbing the peptide library onto purified IgGs from pooled normal serum (five healthy male individuals). The pre-cleared peptide library was screened onto the purified IgGs from the serum of prostate cancer patients. In brief, 10^9 transducing units (T.U.) of a CX6C cyclic peptide phage library were incubated with IgG antibodies from 50 μl of normal serum immobilized on 50 μl of protein G (Gibco BRL) for 1 hour at 4° C. This was followed by affinity selection on the immobilized IgG antibodies from prostate cancer patient serum for 2 hours at 4° C. Phage peptides specifically bound to IgGs elicited against prostate cancer were eluted with 100 μl of 0.1 M glycine buffer, pH 2.2, neutralized by the addition of 10 μl 1M Tris pH 9.0, and used to infect E. coli strain K91. Ten-fold serial dilutions of the infected solution were spread onto agar plates containing 40 μg/ml of tetracycline and grown overnight. Two hundred colonies were picked, amplified, and precipitated for a subsequent round of panning. A total of three rounds were performed. Individual phage clones were picked for PCR and the insert DNA was sequenced.
Sequence,share of the clones in round II,share of the clones in round III
CNWTDKTC,33.3%,7%
CNKTDKGC,16.7%,0%
CNITQKSC,33.3%,0%

# Same assay, conditions: second and third rounds; patient A, B or C that yielded the peptide
row,Sequence,share of the clones analyzed
1,CHQKPWEC,100%
2,CKDRFERC,100%

# System: immunoglobulins from the serum of prostate cancer patient M
# Assay: Biopanning on purified immunoglobulins from serum of prostate cancer patient M
# Assay type: binding, human
# Details: three rounds of panning; early stage
# Description: The methods used were similar to those described in Example 4. A subtraction protocol was used, in which IgG from a normal individual was coupled to protein G chromatography beads. A cyclic CX6C phage display library, prepared as described above, was exposed to the normal IgG's. […] Antibodies from patient M (prostate cancer patient) were attached to fresh protein G chromatograpy beads. […] This procedure was followed for three rounds of screening and targeting peptides against patient M's antibodies were obtained.
# Serum samples from the same patient were obtained from archival specimens and used to obtain targeting peptides. Patient M's serum from 1994 (early stage cancer), 1998 (intermediate stage) and 2000 (late stage) were used to obtain antibody targeting peptides as described above.
row,Sequence,"phage exhibiting the sequence / total clones, 1994 Serum"
1,CISSPSNC,CISSPSNC (1/22)
2,CAVKSVTC,CAVKSVTC (1/22)
3,CSASDLSC,CSASDLSC (2/22)
4,CNGFMGYC,CNGFMGYC (1/22)
5,CRASAMVC,CRASAMVC (1/22)
6,CNSAFAGC,CNSAFAGC (1/22)
7,CRDGYHHC,CRDGYHHC (1/22)
8,CNQSMWSC,CNQSMWSC (1/22)
9,CSYTFAGC,CSYTFAGC (1/22)
10,CQFENGTC,CQFENGTC (1/22)
11,CTFAGSSC,CTFAGSSC (6/22)
12,CIDMTHQC,CIDMTHQC (1/22)
13,CSTFAGSC,CSTFAGSC (1/22)
14,CQNQYPEC,CQNQYPEC (1/22)
15,CLTSENAC,CLTSENAC (1/22)

# Same assay, conditions: three rounds of panning; intermediate stage
row,Sequence,"phage exhibiting the sequence / total clones, 1998 Serum"
1,CKNKHTTC,CKNKHTTC (1/20)
2,CNNMYAGC,CNNMYAGC (1/20)
3,CNSAFAGC,CNSAFAGC (1/20)
4,CSKKFVTC,CSKKFVTC (3/20)
5,CTFAGSSC,CTFAGSSC (12/20)
6,CQNQYPEC,CQNQYPEC (1/20)
7,CFETFAGC,CFETFAGC (1/20)

# Same assay, conditions: three rounds of panning; late stage
row,Sequence,"phage exhibiting the sequence / total clones, 2000 Serum"
1,CNSAFAGC,CNSAFAGC (1/29)
2,CFPKRVTC,CFPKRVTC (1/29)
3,CTFAGSSC,CTFAGSSC (26/29)
4,CPRSAKNC,CPRSAKNC (1/29)

# System: DU145 xenografts
# Assay: Biopanning of X2CX14CX2 phage library in tumor-bearing mice
# Assay type: in vivo, nude mice
# Details: third round, 76 translated clones
# Method: DU145 prostate tumor cells were injected subcutaneously into the right fat pad of nude mice. A large phage library (X2CX14CX2) was prepared as discussed above and 10^9 phage were injected into male tumor-bearing nude mice. After 24 hr circulation, tumors were removed and phage recovered from the tumors using the bulk method disclosed above. The recovered phage were amplified, titered and reinjected into a new set of tumor bearing nude mice. The biopanning protocol was repeated for a total of three rounds. Ninety-six phage clones recovered from the third round of biopanning were selected for sequencing. Translated sequences were obtained for 76 of the 96 clones.
row,Sequence,number of times the sequence was obtained
1,QHCVKGQFPFRESVTITCNS,QHCVKGQFPFRESVTITCNS (1)
2,DACSRFLGERVDATAAGCSR,DACSRFLGERVDATAAGCSR (2)
3,KLCYRSSAGSELRPPEKCAY,KLCYRSSAGSELRPPEKCAY (1)
4,HTCWGARDVAQPSGTVRCLK,HTCWGARDVAQPSGTVRCLK (1)
5,NNCPVEGSQQNYSGATWCRA,NNCPVEGSQQNYSGATWCRA (1)
6,YSCTRLNGTGLQNPPSACDR,YSCTRLNGTGLQNPPSACDR (1)
7,RSCVNSDTGVLQRGAPSCLF,RSCVNSDTGVLQRGAPSCLF (1)
8,VVCFMERQMGTDVVSPMCVN,VVCFMERQMGTDVVSPMCVN (1)
9,VECVMASASTDGTAAHPCKP,VECVMASASTDGTAAHPCKP (1)
10,NDCSAHAQPGWDEVPPMCNQ,NDCSAHAQPGWDEVPPMCNQ (1)
11,LGCNKGRYWLSTRLSVSCAL,LGCNKGRYWLSTRLSVSCAL (1)
12,RTCEEVRNRALEELTNFCPY,RTCEEVRNRALEELTNFCPY (1)
13,PGCVVSPFALSAQGTSVCTI,PGCVVSPFALSAQGTSVCTI (1)
14,EGCSDIMNTAAERVTGDCSY,EGCSDIMNTAAERVTGDCSY (2)
15,MHCTSQTLRGTPSLAPKCSD,MHCTSQTLRGTPSLAPKCSD (1)
16,VACDISAVERLPASARSCKT,VACDISAVERLPASARSCKT (1)
17,VRCNEAQLQDSGTVPHPCLR,VRCNEAQLQDSGTVPHPCLR (1)
18,RGCTEAAGLVIGITTHQCGN,RGCTEAAGLVIGITTHQCGN (3)
19,DRCVLVRPEFGRGDARLCHS,DRCVLVRPEFGRGDARLCHS (2)
20,VFCCGSYCGGVEMLASRCGH,VFCCGSYCGGVEMLASRCGH (2)
21,TLCRSLEHEVGLFKPRECPF,TLCRSLEHEVGLFKPRECPF (1)
22,NRCMPGFLDDADSAASPCGS,NRCMPGFLDDADSAASPCGS (1)

row,Sequence,number of times the sequence was obtained
1,KICPVTNMWTTPSWAHKCGM,KICPVTNMWTTPSWAHKCGM (1)
2,KSCGKYGLIVGQPFAEHCPP,KSCGKYGLIVGQPFAEHCPP (1)
3,TTCNKSMSSQPMRDSRECHR,TTCNKSMSSQPMRDSRECHR (1)
4,SRCHALRSQSVSTSAGACIS,SRCHALRSQSVSTSAGACIS (1)
5,IGCNHPSPLGSTVVPTYCFK,IGCNHPSPLGSTVVPTYCFK (3)
6,GTCPRQFFHMQEFWPSDCSR,GTCPRQFFHMQEFWPSDCSR (3)
7,LRCPLEVDRPNRDPAFLCSQ,LRCPLEVDRPNRDPAFLCSQ (1)
8,GDCETNNVTKVGGITRNCVG,GDCETNNVTKVGGITRNCVG (1)
9,GYCLTVVGGAVLTLALLCVT,GYCLTVVGGAVLTLALLCVT (1)
10,GPCAATGVNPGDHGAAVCDQ,GPCAATGVNPGDHGAAVCDQ (1)
11,ARCREDTGFMGLGSANICTD,ARCREDTGFMGLGSANICTD (1)
12,PNCDLDDIVLNPYTAGPCGT,PNCDLDDIVLNPYTAGPCGT (1)
13,TSCVRTGHDENLLKAAYCSS,TSCVRTGHDENLLKAAYCSS (1)
14,WVCTSASQDTRLKEPGMCIA,WVCTSASQDTRLKEPGMCIA (1)
15,NQCSSLLTYQGWKRTKDCIP,NQCSSLLTYQGWKRTKDCIP (1)
16,GNCMGLQVSELFMGPYKCRQ,GNCMGLQVSELFMGPYKCRQ (2)
17,TECRGASSGSVSGAATDCRD,TECRGASSGSVSGAATDCRD (1)
18,PNCYSGDGEISSHIPVQCLM,PNCYSGDGEISSHIPVQCLM (1)
19,RECGRTVHRYPWGSPESCER,RECGRTVHRYPWGSPESCER (2)
20,RGCWRDSTAWHVSYPVECLA,RGCWRDSTAWHVSYPVECLA (1)
21,RTCQVRSNNISPRMALACVT,RTCQVRSNNISPRMALACVT (1)
22,TLCPPASMGLGREKPRLCSV,TLCPPASMGLGREKPRLCSV (1)

# System: DU145 xenografts
# Assay: Phage localization by anti-phage staining of tissues
# Assay type: in vivo, nude mice
# Details: 24 hour circulation
# Method: To determine the specificity of the prostate tumor targeting peptides, 10^9 phage carrying the targeting peptide sequences […] (SEQ ID NO:83) and […] (SEQ ID NO:84) were injected into nude mice bearing DU145 xenografts. After 24 hour circulation, tissue samples were obtained from tumor and control organs (kidney, brain, lung and spleen). Tissue samples were washed immediately in DMAM and fixed in 10% formalin for 48 hours at room temperature. Thin sections were stained for phage using anti-phage antibody (1:500 dilution) and detected using the DAKO LSAB+ system. […] This may be due to the tendency of spleen tissue to trap phage and other foreign particles in general as part of the reticuloendothelial system.
Sequence,"anti-phage staining of control kidney, brain or lung",anti-phage staining of normal spleen,anti-phage staining of tumor
LGCMASMLREFEGATHACTQ,No staining was observed,low level of anti-phage staining,very heavy staining

# — US8507445B2, “Compositions and methods of use of targeting peptides for diagnosis and therapy of human cancer” (Board of Regents, The University of Texas System, priority 2002, dated 2013)
